The record followed here is patent publication US20250179103A1, “6-OXODECAHYDROPYRROLO[1,2-A][1,5]DIAZOCINE AND 6-OXODECAHYDRO-4H-PYRROLO[2,1-D][1,5]THIAZOCINE DERIVATIVES AS STAT3 AND STAT6 MODULATORS FOR THE TREATMENT OF CANCER AND INFLAMMATORY CONDITIONS” (Recludix Pharma, Inc., priority 2022, published 2025).

The target of assay [1] is T1, Recombinant STAT6 protein (STAT6(W123-T658)) (Homo sapiens, UniProt P42226).
T1 construct: Recombinant STAT6 protein (STAT6(W123-T658))
T1 sequence (P42226 123-658): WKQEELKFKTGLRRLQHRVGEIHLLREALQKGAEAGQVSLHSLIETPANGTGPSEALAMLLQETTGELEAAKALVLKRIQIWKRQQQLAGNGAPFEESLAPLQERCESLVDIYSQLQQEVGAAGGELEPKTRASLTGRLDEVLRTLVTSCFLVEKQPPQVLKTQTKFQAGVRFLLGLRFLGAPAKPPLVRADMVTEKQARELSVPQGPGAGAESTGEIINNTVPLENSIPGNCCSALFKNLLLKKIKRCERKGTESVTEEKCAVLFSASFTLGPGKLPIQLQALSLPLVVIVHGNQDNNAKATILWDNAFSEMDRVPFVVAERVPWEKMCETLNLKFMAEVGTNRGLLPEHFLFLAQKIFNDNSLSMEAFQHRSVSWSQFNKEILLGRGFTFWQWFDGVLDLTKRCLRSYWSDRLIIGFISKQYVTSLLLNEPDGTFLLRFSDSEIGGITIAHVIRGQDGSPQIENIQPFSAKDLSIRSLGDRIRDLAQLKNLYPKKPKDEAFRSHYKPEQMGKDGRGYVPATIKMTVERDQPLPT
Description: STAT6 Fluorescence Polarization (FP) Assay. The class given is binding. The conditions noted are these: STAT6(W123-T658) 250 nM, probe 5-FAM-ApYKPFQDLI-NH2 2 nM, 45-minute incubation. Summed up:
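Displacement of a fluorescent phosphotyrosine peptide (5-FAM-ApYKPFQDLI-NH2, 2 nM) from STAT6(W123-T658) (250 nM), 1% DMSO, pH 7.4 HEPES buffer. After 45 min at room temperature, polarization (mP) was plotted versus log compound concentration and fitted by nonlinear regression to give IC50.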

Assay [2] has as its target T2, Recombinant STAT3 protein (STAT3(G127-I722)) (Homo sapiens, UniProt P40763).
T2 construct: Recombinant STAT3 protein (STAT3(G127-I722))
Description: STAT3 Fluorescence Polarization (FP) Assay. It is filed as binding. The conditions noted are these: STAT3(G127-I722) 25 nM, probe 5-FAM-GpYLPQTV-NH2 2 nM, 45-minute incubation. In short, it runs like this:
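Fluorescence polarization after a 45-min room-temperature incubation measured compound displacement of a 2 nM fluorescein-labelled phosphotyrosine peptide (5-FAM-GpYLPQTV-NH2) from 25 nM recombinant STAT3(G127-I722). Buffer was 10 mM HEPES pH 7.4 with 1% DMSO final. IC50s were fitted by nonlinear regression of mP against log concentration.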
Background: Polarisation of emitted light reports the rotation of a fluorescent probe.

T2 sequence (P40763 127-722): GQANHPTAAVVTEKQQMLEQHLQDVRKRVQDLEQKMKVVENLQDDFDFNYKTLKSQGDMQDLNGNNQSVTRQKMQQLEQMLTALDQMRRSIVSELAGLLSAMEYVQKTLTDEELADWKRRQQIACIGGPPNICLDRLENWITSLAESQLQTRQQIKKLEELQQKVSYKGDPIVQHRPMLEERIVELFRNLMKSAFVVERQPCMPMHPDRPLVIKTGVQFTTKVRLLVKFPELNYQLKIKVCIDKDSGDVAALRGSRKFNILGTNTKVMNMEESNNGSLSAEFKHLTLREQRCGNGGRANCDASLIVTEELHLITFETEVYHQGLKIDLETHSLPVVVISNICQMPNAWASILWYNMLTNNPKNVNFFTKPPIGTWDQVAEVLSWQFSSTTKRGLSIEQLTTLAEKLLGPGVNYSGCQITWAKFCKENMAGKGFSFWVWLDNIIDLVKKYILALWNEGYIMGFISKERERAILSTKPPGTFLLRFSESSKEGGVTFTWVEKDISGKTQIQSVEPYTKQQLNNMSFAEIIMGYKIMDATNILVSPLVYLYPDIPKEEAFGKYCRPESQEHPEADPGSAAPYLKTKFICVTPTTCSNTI

In general, IC50 refers to the point on the concentration scale where inhibition reaches its midpoint. As to `CC(C)(CC(=O)N1CC[C@H]2CC[C@@H](C(=O)N3CC(c4cccnc4)C3)N2C(=O)[C@@H](NC(=O)c2cc3cc(C(F)(F)P(=O)(O)O)ccc3s2)C1)C1CCCCC1` [Compound 269, ((2-(((5S,8S,10aR)-3-(3-cyclohexyl-3-methylbutanoyl)-6-oxo-8-(3-(pyridin-3-yl)azetidine-1-carbonyl)decahydropyrrolo[1,2-a][1,5]diazocin-5-yl)carbamoyl)benzo[b]thiophen-5-yl)difluoromethyl)phosphonic acid], the IC50 in assay [1] is 0.3 to 3 µM; in assay [2], at most 0.1 µM.

With `Cc1ccc2[nH]nc(C(=O)N3CC[C@H]4CC[C@@H](C(=O)N(C)C5CC5)N4C(=O)[C@@H](NC(=O)c4ccc5ccc(C(F)(F)P(=O)(O)O)cc5c4)C3)c2c1` [Compound 270, ((7-(((5S,8S,10aR)-8-(cyclopropyl(methyl)carbamoyl)-3-(5-methyl-1H-indazole-3-carbonyl)-6-oxodecahydropyrrolo[1,2-a][1,5]diazocin-5-yl)carbamoyl)naphthalen-2-yl)difluoromethyl)phosphonic acid], the IC50 is at most 0.3 µM in assay [1] and 1 to 10 µM in assay [2].

As to `Cc1ccc2[nH]nc(C(=O)N3CC[C@H]4CC[C@@H](C(=O)N(C)C)N4C(=O)[C@@H](NC(=O)c4ccc5ccc(C(F)(F)P(=O)(O)O)cc5c4)C3)c2c1` [Compound 271, ((7-(((5S,8S,10aR)-8-(dimethylcarbamoyl)-3-(5-methyl-1H-indazole-3-carbonyl)-6-oxodecahydropyrrolo[1,2-a][1,5]diazocin-5-yl)carbamoyl)naphthalen-2-yl)difluoromethyl)phosphonic acid], the concentration for half-maximal inhibition (IC50) in assay [1] is at most 0.3 µM; in assay [2], 1 to 10 µM.

On to `CNC(=O)[C@@H]1CC[C@@H]2CCN(Cc3ccn4ccnc4c3)C[C@H](NC(=O)c3cc4cc(C(F)(F)P(=O)(O)O)ccc4s3)C(=O)N21` [Compound 272, (difluoro(2-(((5S,8S,10aR)-3-(imidazo[1,2-a]pyridin-7-ylmethyl)-8-(methylcarbamoyl)-6-oxodecahydropyrrolo[1,2-a][1,5]diazocin-5-yl)carbamoyl)benzo[b]thiophen-5-yl)methyl)phosphonic acid], for which the IC50 in assay [1] is 3 to 30 µM; in assay [2] it was at most 0.1 µM.

Regarding `O=C(N[C@H]1CN(Cc2ccn3ccnc3c2)CC[C@H]2CC[C@@H](C(=O)N3CC(c4cccnc4)C3)N2C1=O)c1cc2cc(C(F)(F)P(=O)(O)O)ccc2s1` [Compound 273, (difluoro(2-(((5S,8S,10aR)-3-(imidazo[1,2-a]pyridin-7-ylmethyl)-6-oxo-8-(3-(pyridin-3-yl)azetidine-1-carbonyl)decahydropyrrolo[1,2-a][1,5]diazocin-5-yl)carbamoyl)benzo[b]thiophen-5-yl)methyl)phosphonic acid], the IC50 in assay [1] is 3 to 30 µM; in assay [2], at most 0.1 µM.

Turning to `CN1CCN(c2ccccc2CN2CC[C@H]3CC[C@@H](C(=O)N4CC(c5cccnc5)C4)N3C(=O)[C@@H](NC(=O)c3cc4cc(C(F)(F)P(=O)(O)O)ccc4s3)C2)CC1` [Compound 274, (difluoro(2-(((5S,8S,10aR)-3-(2-(4-methylpiperazin-1-yl)benzyl)-6-oxo-8-(3-(pyridin-3-yl)azetidine-1-carbonyl)decahydropyrrolo[1,2-a][1,5]diazocin-5-yl)carbamoyl)benzo[b]thiophen-5-yl)methyl)phosphonic acid], the values for the IC50 in assay [1] and in assay [2] were 3 to 30 µM and at most 0.1 µM, respectively.

Turning to `COc1cc(CN2CC[C@H]3CC[C@@H](C(=O)N4CC(c5cccnc5)C4)N3C(=O)[C@@H](NC(=O)c3cc4cc(C(F)(F)P(=O)(O)O)ccc4s3)C2)ccc1-n1cnc(C)c1` [Compound 275, (difluoro(2-(((5S,8S,10aR)-3-(3-methoxy-4-(4-methyl-1H-imidazol-1-yl)benzyl)-6-oxo-8-(3-(pyridin-3-yl)azetidine-1-carbonyl)decahydropyrrolo[1,2-a][1,5]diazocin-5-yl)carbamoyl)benzo[b]thiophen-5-yl)methyl)phosphonic acid], the IC50 in assay [1] is 3 to 30 µM; in assay [2], at most 0.1 µM.

As to `N#Cc1ccccc1-c1ccc(NC(=O)[C@@H]2CC[C@@H]3CCN(C(=O)Cc4ccccc4)C[C@H](NC(=O)c4cc5cc(C(F)(F)P(=O)(O)O)ccc5[nH]4)C(=O)N32)c(F)c1` [Compound 276, ((2-(((5S,8S,10aR)-8-((2′-cyano-3-fluoro-[1,1′-biphenyl]-4-yl)carbamoyl)-6-oxo-3-(2-phenylacetyl)decahydropyrrolo[1,2-a][1,5]diazocin-5-yl)carbamoyl)-1H-indol-5-yl)difluoromethyl)phosphonic acid], the values for the IC50 in assay [1] and in assay [2] were 0.3 to 3 µM and 1 to 10 µM, respectively.

In the case of `O=C(N[C@H]1CN(CC(F)(F)F)CC[C@H]2CC[C@@H](C(=O)N3CC(C(=O)N4CCOCC4)C3)N2C1=O)c1cc2cc(C(F)(F)P(=O)(O)O)ccc2s1` [Compound 277, (difluoro(2-(((5S,8S,10aR)-8-(3-(morpholine-4-carbonyl)azetidine-1-carbonyl)-6-oxo-3-(2,2,2-trifluoroethyl)decahydropyrrolo[1,2-a][1,5]diazocin-5-yl)carbamoyl)benzo[b]thiophen-5-yl)methyl)phosphonic acid], the IC50 is 3 to 30 µM in assay [1] and at most 0.1 µM in assay [2].

`CCN1CC[C@H]2CC[C@@H](C(=O)N3CC(C(=O)N4CCOCC4)C3)N2C(=O)[C@@H](NC(=O)c2cc3cc(C(F)(F)P(=O)(O)O)ccc3s2)C1` [Compound 278, ((2-(((5S,8S,10aR)-3-ethyl-8-(3-(morpholine-4-carbonyl)azetidine-1-carbonyl)-6-oxodecahydropyrrolo[1,2-a][1,5]diazocin-5-yl)carbamoyl)benzo[b]thiophen-5-yl)difluoromethyl)phosphonic acid]: the values for the IC50 in assay [1] and in assay [2] were 3 to 30 µM and 0.1 to 1 µM, respectively.

Turning to `CC(=O)N1CC[C@H]2CC[C@@H](C(=O)N3CC(c4ccn(C)c(=O)c4)CC34CC4)N2C(=O)[C@@H](NC(=O)c2ccc3ccc(C(F)P(=O)(O)O)cc3c2)C1` (stereo partly drawn) [Compound 354, ((7-(((5S,8S,10a R)-3-acetyl-8-(6-(1-methyl-2-oxo-1,2-dihydropyridin-4-yl)-4-azaspiro[2.4]heptane-4-carbonyl)-6-oxodeca-hydropyrrolo [1,2-a][1,5]diazocin-5-yl)carbamoyl)naphthalen-2-yl)fluoromethyl) phosphonic acid], the IC50 in assay [1] is at most 0.3 µM; in assay [2], over 10 µM.

`CC(=O)N1CC[C@H]2CC[C@@H](C(=O)N3CCC(c4cccnc4)C3)N2C(=O)[C@@H](NC(=O)c2ccc3ccc(C(F)P(=O)(O)O)cc3c2)C1` (stereo partly drawn) [Compound 355, ((7-(((5S,8S,10a R)-3-acetyl-6-oxo-8-(3-(pyridin-3-yl)pyrrolidine-1-carbonyl)decahydro-pyrrolo [1,2-a][1,5]diazocin-5-yl)carbamoyl)naphthalen-2-yl)fluoromethyl) phosphonic acid]: the results for the IC50 in assay [1] and in assay [2] were 0.3 to 3 µM and 1 to 10 µM, respectively.

In the case of `CC(=O)N1CC[C@H]2CC[C@@H](C(=O)N3CC(c4ccn(C)c(=O)c4)CC34CC4)N2C(=O)[C@@H](NC(=O)c2ccc3ccc(CP(=O)(O)O)cc3c2)C1` (stereo partly drawn) [Compound 356, ((7-(((5S,8S,10a R)-3-acetyl-8-(6-(1-methyl-2-oxo-1,2-dihydropyridin-4-yl)-4-azaspiro[2.4]heptane-4-carbonyl)-6-oxodeca-hydropyrrolo [1,2-a][1,5]diazocin-5-yl)carbamoyl)naphthalen-2-yl)methyl) phosphonic acid], the IC50 is 0.3 to 3 µM in assay [1] and over 10 µM in assay [2].
